Source: article PMC12587390, “Metabolite Identification Data in Drug Discovery, Part 1: Data Generation and Trend Analysis” (Molecular Pharmaceutics, 2025)
Converted amounts (≈) assume the structure as drawn.

Legend:
[1] = MetID on in vivo dog samples (plasma, urine); parameters: species or system dog (beagles); conditions: for % of the total MS area, Dog Plasma (Female): after Cmpd 28, sampled at 3 h and 30 min
Method: (§1) The workup procedure could vary somewhat depending on the compound and dose, but the general procedure was as follows: Two volumes of ACN/methanol (1:1, v:v) were added to the plasma samples and vortex-mixed to precipitate the proteins. Thereafter, the samples were centrifuged for 10 min (at 10,000 g and 4 °C), and the supernatants were diluted with one volume of water. The urine samples were diluted with one volume of ACN/methanol (1:1, v:v) and centrifuged for 10 min (at 10,000 g and 4 °C), followed by a 1:1 dilution with water.
(§2) Structural characterization of metabolites and metabolite profiling were performed using the Waters Acquity ultraperformance liquid chromatography (UPLC) system fitted to a Waters High-Resolution Mass Spectrometer (MS) (Xevo G2-S, Synapt G2-Si, or a Synapt XS MS). The Waters MS systems, equipped with an electrospray ionization (ESI) source, were operated in positive-ion sensitivity mode over a mass range m/z 50–1200 and in negative-ion sensitivity mode over a mass range m/z of 50–1200.
(§3) The reversed-phase gradient elution was performed on an Acquity U(H)-PLC BEH C18 column (2.1 × 100 mm, 1.7 μm, Waters) set at 45 °C. The mobile phases consisted of 0.1% FA in water (A) and ACN (B). […] The injection volume was 2 μL. The MS settings were optimized for the respective MS instrument. […] A scan time of 0.1 s was used, and data were acquired in centroid mode. Collision energy was set to “off” for the low-energy function, whereas in the high-energy MSe functions, the collision energies were typically ramped from 15 to 35 V in the trap cell, with constant collision energies of 20 V in their transfer cells. Cone voltage was set to 25 V for both low- and high-energy functions. For dedicated MS/MS, the m/z of the molecular ion was selected in the quadrupole, and the mass range for fragmentation analysis was typically set between 50 and 1200. The collision energies were either the same as those stated above for MSe data generation or optimized for a specific metabolite. Tune parameters for all MS analyses consisted of a capillary energy of 0.5 kV, sampling cone energy of 40 V, source temperature of 150 °C, desolvation temperature of 550 °C, cone gas flow of 0 L/h, desolvation gas flow of 1200 L/h, and nebulizer pressure of 6.5 bar.
(§4) Metabolite identification was conducted by processing the generated data using the MetaboLynx XS browser (Waters), MassMetaSite and the web interface ONIRO (Mass Analytica). […] Accurate masses of metabolites were determined from the protonated molecules in the positive ESI time-of-flight MS (ESI–TOF–MS) mode and from the deprotonated molecules in the negative ESI–TOF–MS mode. […] For those metabolites where no MS/MS data could be acquired, identification was based on the accurate mass of the molecular ion and the fragmentation seen in the MSe spectrum. Relative amounts of detected metabolites were calculated as % of the total MS area by dividing the MS peak area for the metabolite (or parent compound) by the combined MS peak area for the parent compound and all identified metabolites.

dog hepatocytes = assay: Metabolite identification in dog hepatocyte incubations; type: in vitro ADME; conditions: for % of the total MS area, Dog Hepatocytes (Mixed gender): Cmpd 28 incubated for 120 min, 4 μM; for Parent, % of the total MS area: dog hepatocytes, incubated for 120 min
Method: (§5) Cryopreserved, pooled primary human, dog, and rat hepatocytes were obtained from BioIVT (previously Celsis IVT). L-15 Leibovitz buffer was placed in a water bath to reach 37 °C. Cryopreserved hepatocytes were transferred from a −150 °C freezer on dry ice and immediately immersed in a preheated water bath kept at 37 °C for thawing. When only a small ice crystal could be seen, the content was emptied into a 50 mL falcon tube filled with warm buffer (maximum four vials/falcon tube). The suspension was centrifuged at room temperature for 3 min at 50 g. The supernatant was removed, the pellet was resuspended in a small volume of buffer, and the falcon tube was refilled with buffer, followed by another centrifugation to wash away any remaining storage buffer. Thereafter, the supernatant was removed, and the pellet was dissolved in a small volume of buffer and diluted to a concentration of about 3–5 million cells/mL. After counting the cells using a Casy cell counter, the suspension was diluted to 1 million viable cells/mL and kept at room temperature until use. The viability cutoff was 80%.
(§6) An aliquot of 245 μL of hepatocyte suspension was added to a round-bottomed 96-deep-well plate using a manual multipipette. The deep-well plate was preincubated for 15 min at 37 °C and 13 Hz. Substrate solutions of the assay compounds were prepared by the robot in a 96-well plate as follows: 4 μL of 10 mM DMSO stock solution, followed by the addition of 96 μL of ACN:water (1:1, v:v) and mixing by shaking. 50 μL from each well were transferred to and combined in a new plate, resulting in 100 μL per well and a dilution of 1:1.
(§7) The reaction was started by the addition of 5 μL of 200 μM substrate solution to the preheated hepatocyte suspension, resulting in a final substrate concentration of 4 μM (0.04% DMSO, <0.5% ACN). The incubation was continued at 37 °C and 13 Hz. At each time point (0, 40, and 120 min), a 50 μL sample was taken out and quenched in 200 μL of cold ACN:methanol (1:1, v:v), and the stopped plates were centrifuged for 20 min (set at 4 °C and 4000 g). The supernatant was diluted by taking 50 μL and mixing it with 100 μL of water. Incubations of the positive controls, albendazole and dextromethorphan, were performed in parallel as described above.
as §2
(§8) The reversed-phase gradient elution was performed on an Acquity U(H)-PLC BEH C18 column (2.1 × 100 mm, 1.7 μm, Waters) set at 45 °C. The mobile phases consisted of 0.1% FA in water (A) and ACN (B). […] The injection volume was 2 μL. The MS settings were optimized for the respective MS instrument. […] A scan time of 0.1 s was used, and data were acquired in centroid mode. Collision energy was set to “off” for the low-energy function, whereas in the high-energy MSe functions, the collision energies were typically ramped from 15 to 35 V in the trap cell, with constant collision energies of 20 V in their transfer cells. Cone voltage was set to 25 V for both low- and high-energy functions. For dedicated MS/MS, the m/z of the molecular ion was selected in the quadrupole, and the mass range for fragmentation analysis was typically set between 50 and 1200. The collision energies were either the same as those stated above for MSe data generation or optimized for a specific metabolite.

[2] = MetID on in vivo rat plasma samples; parameters: species or system rat (Han Wistar); conditions: after Cmpd 28; sampled at 4 h
Method: as §1, §2, §3, §4

rat hepatocytes = assay: Metabolite identification in rat hepatocyte incubations; type: in vitro ADME; conditions: Cmpd 28 incubated for 120 min, 4 μM
Method: as §5, §6
as §7, with “The supernatant was diluted by taking 50 μL and mixing it with 100 μL of water. Incubations of the positive controls, albendazole and dextromethorphan, were performed in parallel as described above.” left out

human hepatocytes [3] = assay: Metabolic stability in human hepatocytes (HH CLint); type: in vitro ADME; conditions: 37 °C, 2 h
Method: Metabolic stability in human hepatocytes (HH CLint) was measured by incubating the cells with the test compound at 37 °C for 2 h. An aliquot of the mixture was taken at typically nine defined time points, and the metabolic reaction was stopped by adding ACN. The samples were centrifuged, and the supernatant was analyzed via LC-MS/MS. Intrinsic clearance (CLint) was calculated from the disappearance rate of the parent compound. ,

human hepatocytes [4] = assay: Metabolite identification in human hepatocyte incubations; type: in vitro ADME; conditions: 4 μM
Method: as §5, §6, §7, §2, §8

[5] = Thermodynamic solubility, shake-flask; conditions: 10 mM sodium phosphate buffer, 25 °C, pH 7.4, aqueous buffer, thermodynamic from solid
Method: Solubility was measured as the thermodynamic solubility using a shake-flask approach. Here, DMSO was evaporated from the compound stock solution as the first step. The “dried” compounds were then placed into 10 mM sodium phosphate buffer, adjusted to pH 7.4, and equilibrated at 25 °C for 24 h. The samples were centrifuged, and the solution was analyzed by LC-MS/MS to determine the amount of compound in solution.

Row | % of the total MS area, Dog Plasma (Female) [1] | % of the total MS area, Dog Hepatocytes (Mixed gender) (dog hepatocytes) | % of the total MS area, Rat Plasma (Female) [2] | % of the total MS area, Rat Plasma (Male) [2] | SMILES | Parent, % of the total MS area (dog hepatocytes) | Parent, % of the total MS area ([1]; dog urine, sampled at 7–24 h) | further results
1 | 34% | – | – | – | Cc1cc(-c2ccc(C(=O)[C@@H]3CCCC[C@H]3C(=O)Nc3cn(C)nc3C)cc2)n[nH]1 [Cmpd 28, Cc1cc(-c2ccc(C(=O)[C@@H]3CCCC[C@H]3C(=O)Nc3cn(C)nc3C)cc2)n[nH]1] | – | – | –
2 | 5% | not detected | not seen | not seen | Cc1nn(C)cc1NC(=O)[C@@H]1CCCC[C@H]1C(=O)c1ccc(-c2cc(C(=O)O)[nH]n2)cc1 [Cmpd 28 M7] | – | – | –
3 | – | – | 1% | 3% | Cc1cc(-c2ccc(C(=O)[C@@H]3CCCC[C@H]3C(N)=O)cc2)n[nH]1 [Cmpd 28 M8] | – | – | –
4 | 12% | 4% | 18% | 17% | Cc1cc(-c2ccc(C(=O)[C@@H]3CCCC[C@H]3C(=O)O)cc2)n[nH]1 [Cmpd 28 M1] | – | – | % of the total MS area, Rat Hepatocytes (Mixed gender) (rat hepatocytes): no detection

Continued, compound first:

Row | SMILES | % of the total MS area, Dog Plasma (Female) [1] | % of the total MS area, Dog Hepatocytes (Mixed gender) (dog hepatocytes) | % of the total MS area, Rat Plasma (Female) [2] | % of the total MS area, Rat Plasma (Male) [2] | Parent, % of the total MS area (dog hepatocytes) | Parent, % of the total MS area ([1]; dog urine, sampled at 7–24 h) | further results
5 | Cc1cc(-c2ccc(C(=O)C3CCCCC3C(=O)OC3OC(C(=O)O)C(O)C(O)C3O)cc2)n[nH]1 (centres unmarked) [Cmpd 28 M2] | 40% | 4% | 1% | 0.5% | – | – | % of the total MS area, Rat Hepatocytes (Mixed gender) (rat hepatocytes): no detection
6 | COc1ccc(-c2nnc(C(=O)N3CC(Oc4ccc(CN5CC(C)(O)C5)c(C)c4)C3)o2)cc1 [Cmpd 81, COc1ccc(-c2nnc(C(=O)N3CC(Oc4ccc(CN5CC(C)(O)C5)c(C)c4)C3)o2)cc1] | – | – | – | – | – | – | HH CLint (human hepatocytes [3]): 17 μL/min/1E6; Metabolites / metabolic pathways identified (human hepatocytes [4]): O-demethylation pathway remains the major metabolic route; solubility at 24 h [5]: 71 µM (≈ 33 µg/mL)
7 | CN(C(=O)c1ccc(Cl)cc1)C(CN1CC(O)C1)C1CC1 (centres unmarked) [Cmpd 47, CN(C(=O)c1ccc(Cl)cc1)[C@H](CN1CC(O)C1)C1CC1] | – | – | – | – | 83% | 5% | Parent, % of the total MS area ([1]; dog plasma, sampled at 30 min): 5%
8 | CCCC(CN1CC(O)C1)N(C)C(=O)c1ccc(Cl)cc1 (centres unmarked) [Cmpd 51, CCC[C@@H](CN1CC(O)C1)N(C)C(=O)c1ccc(Cl)cc1] | – | – | – | – | 80% | 22% | N-oxide, % of the total MS area ([1]; dog plasma, sampled at 60 min): not observed; Parent, % of the total MS area ([1]; dog plasma, sampled at 60 min): 20%; N-oxide, % of the total MS area ([1]; dog urine, sampled at 7–24 h): not observed
9 | CC(C)C(CN1CC(O)C1)N(C)C(=O)c1ccc(Cl)cc1 (centres unmarked) [Cmpd 50, CC(C)[C@@H](CN1CC(C1)O)N(C)C(=O)c2ccc(cc2)Cl] | – | – | – | – | 73% | 10% | Metabolites detected in plasma ([1]; dog plasma): No metabolites; Parent, % of the total MS area ([1]; dog plasma, sampled at 60 min): >99%
